Experimental data reported in US5189058A, “Iminodicarbonic, iminodicarbonodithioic, and thiocarbonylcarbamic acid esters useful as ACAT inhibitors” (Warner-Lambert Company, priority 1991, dated 1993).
Read-outs that look alike come from different tables or passages of the source.

Key:
[1] = in vivo screen designated APCC (blood cholesterol in rats on high fat, high cholesterol diet); conditions: Rattus norvegicus, 16 h, male Sprague-Dawley rats, 30 mg/kg in CMC/Tween at 4 PM, PCC diet (0.5% cholic acid) overnight, sacrificed 8 AM, read-out: % Change (mg/dl)
Experimental: In one in vivo screen designated APCC, male Sprague-Dawley rats (200 to 225 g) were randomly divided into treatment groups and dosed at 4 PM with either vehicle (CMC/Tween) or suspensions of compounds in vehicle at a dose of 30 mg/kg. The normal chow diet was then replaced with a high fat, high cholesterol diet (designated PCC) containing 0.5% cholic acid. The rats consumed this diet ad libitum during the night and were sacrificed at 8 AM to obtain blood samples for cholesterol analysis using standard procedures. Statistical differences between mean cholesterol values for the same vehicle were determined using analysis of variance followed by Fisher's least significant test.

[2] = target: T1, acyl-CoA: cholesterol acyltransferase (ACAT) (Oryctolagus cuniculus, UniProt G1SFD9); assay: in vitro ACAT inhibition (radiolabeled cholesterol oleate formed from radiolabeled oleic acid, rabbit intestinal microsomes); assay type: biochemical
T1 sequence (G1SFD9 1-524): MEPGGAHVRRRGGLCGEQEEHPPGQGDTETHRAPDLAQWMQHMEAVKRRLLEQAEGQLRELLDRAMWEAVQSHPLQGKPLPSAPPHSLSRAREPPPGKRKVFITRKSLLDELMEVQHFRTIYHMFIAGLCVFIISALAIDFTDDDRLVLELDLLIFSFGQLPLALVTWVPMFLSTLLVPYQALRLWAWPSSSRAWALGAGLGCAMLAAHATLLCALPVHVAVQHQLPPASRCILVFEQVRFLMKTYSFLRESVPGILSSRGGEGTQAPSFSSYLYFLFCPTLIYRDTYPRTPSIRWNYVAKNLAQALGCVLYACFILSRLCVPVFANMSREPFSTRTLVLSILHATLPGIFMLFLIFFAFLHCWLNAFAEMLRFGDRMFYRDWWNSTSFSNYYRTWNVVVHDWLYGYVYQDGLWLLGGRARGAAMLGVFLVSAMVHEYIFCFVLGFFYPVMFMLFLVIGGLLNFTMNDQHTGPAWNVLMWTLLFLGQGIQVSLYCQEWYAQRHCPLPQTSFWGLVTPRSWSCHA
Experimental: The ability of representative compounds of the present invention to inhibit ACAT was measured using an in vitro test more fully described in F. J. Field and R. G. Salone, Biochemica et Biophysica 712:557-570 (1982). The test assesses the ability of a test compound to inhibit the acylation of cholesterol by oleic acid by measuring the amount of radiolabeled cholesterol oleate formed from radiolabeled oleic acid in a tissue preparation containing rabbit intestinal microsomes.

[3] = rabbit intestinal microsomes, acylation of cholesterol by oleic acid, read-out: IC50

Row | SMILES | change in vivo at 30 mg/kg [1] [%] | IC50 [2] [nM] | IC50 [2, 3] [nM]
1 | CCCCC(C)(C)OC(=O)NC(=O)Oc1c(C(C)C)cccc1C(C)C [Example 5, Iminodicarbonic acid, 2,6-bis(1-methylethyl)phenyl 1,1-dimethylpentyl ester] | -29 | – | –
2 | CC(C)c1cccc(C(C)C)c1OC(=O)NC(=O)Sc1c(C(C)C)cccc1C(C)C [Example 19, 2,6-Bis[[(1-methylethyl)phenyl]thio]carbamic acid, 2,6-bis(1-methylethyl)phenyl ester] | -20 | – | –
3 | CCCCCCCCC(C)OC(=O)NC(=O)Oc1c(C(C)C)cccc1C(C)C (stereo not drawn) [Example 14, Iminodicarbonic acid, 2,6-bis(1-methylethyl)phenyl 1-methylnonyl ester] | -54 | – | –
4 | CCCCCCCCCCCCC(C)OC(=O)N(C)C(=O)Oc1c(C(C)C)cccc1C(C)C (stereo not drawn) [Example 37, Methyliminodicarbonic, 2,6-bis(1-methylethyl)phenyl 1-methyltridecyl ester] | -8 | 600 | –
5 | CCCCCCCCCCCCSC(=O)NC(=O)Oc1c(C(C)C)cccc1C(C)C [Example 18, [(Dodecylthio)carbonyl] -carbamic acid, 2,6-bis(1-methylethyl)phenyl ester] | -63 | – | 28
6 | CCCCCCCCCCCCOC(=O)NC(=O)Sc1c(C(C)C)cccc1C(C)C [Example 34, [[[2,6-Bis(1-methylethyl)phenyl]thio]carbonyl]carbamic acid, dodecyl ester] | – | – | > 5000
7 | CCCCC[C@H](C)OC(=O)NC(=O)Oc1c(C(C)C)cccc1C(C)C [Example 7, Iminodicarbonic acid, 2,6-bis(1-methylethyl)phenyl 1-methylhexyl ester (S)] | -25 | – | –
8 | CCCCCC(C)OC(=O)NC(=O)Oc1c(C(C)C)cccc1C(C)C (racemic) [Example 9, Iminodicarbonic acid, 2,6-bis(1-methylethyl)phenyl 1-methylhexyl ester, (± )] | -60 | – | –
9 | O=C(NC(=O)Oc1c(-c2ccccc2)cccc1-c1ccccc1)Oc1c(-c2ccccc2)cccc1-c1ccccc1 [Example 32, Iminodicarbonic acid, di[1,1'[3',1"-terphenyl]-2-yl]ester] | -36 | – | 10400
10 | CC(C)c1cccc(C(C)C)c1OC(=O)NC(=O)OC(c1ccccc1)c1ccccc1 [Example 1, Iminodicarbonic acid, 2,6-bis(1-methylethyl)phenyldiphenylmethyl ester] | -13 | – | –
11 | COC(=O)C(OC(=O)NC(=O)Oc1c(C(C)C)cccc1C(C)C)c1ccccc1 (stereo not drawn) [Example 25, α-[[[[[2,6-Bis(1-methylethyl)phenoxy]carbonyl]amino]carbonyl]oxy]benzeneacetic acid, methyl ester] | -12 | – | –
12 | CC(C)c1cccc(C(C)C)c1OC(=O)NC(=O)Sc1ccccc1 [Example 28] | -19 | – | 1800
13 | CCCCCCCCCCCCC(C)(C)OC(=O)NC(=O)Oc1c(C(C)C)cccc1C(C)C [Example 4, Iminodicarbonic acid, 2,6-bis(1-methylethyl)phenyl 1,1-dimethyltridecyl ester] | -51 | – | –
14 | CCCCCCCCCCCCC(C)OC(=O)NC(=O)Oc1c(C(C)C)cccc1C(C)C (racemic) [Example 3, Iminodicarbonic acid, 2,6-bis(1-methylethyl)phenyl 1-methyltridecyl ester, (±)] | -50 | – | –
15 | CCCCCCCCCCCCSC(=O)NC(=O)Sc1c(C(C)C)cccc1C(C)C [Example 31, Iminodicarbonodithioic acid, 5-[2,6-bis(1-methylethyl)phenyl] S'-dodecyl ester] | -35 | – | > 1000
16 | Cc1cccc(C)c1SC(=O)NC(=O)Sc1c(C)cccc1C [Example 33, Iminodicarbonodithioic acid, S,S'-bis[2,6-bis(methyl)phenyl]ester] | -33 | – | 230
17 | CC(C)c1cccc(C(C)C)c1OC(=O)NC(=O)Oc1c(C(C)C)cccc1C(C)C [Example 24, Iminodicarbonic acid, di[2,6-bis(1-methylethyl)phenyl]ester] | -43 | – | –

Row | SMILES | change in vivo at 30 mg/kg [1] [%] | IC50 [2] [nM] | IC50 [2, 3] [nM]
18 | CCCCCCCCCCCOC(=O)NC(=O)Oc1c(C(C)C)cccc1C(C)C [Example 11, Iminodicarbonic acid, 2,6-bis(1-methylethyl)phenyl undecyl ester] | -65 | – | –
19 | CCCCCCCCCCC(C)OC(=O)NC(=O)Oc1c(C(C)C)cccc1C(C)C (stereo not drawn) [Example 15, Iminodicarbonic acid, 2,6-bis(1-methylethyl)phenyl 1-methylundecyl ester] | -66 | – | –
20 | CCCCCCCCCCCCCCCCOC(=O)NC(=O)Oc1c(C(C)C)cccc1C(C)C [Example 10, Iminodicarbonic acid, 2,6-bis(1-methylethyl)phenyl hexadecyl ester] | -70 | – | 50
21 | CC(C)c1cccc(C(C)C)c1OC(=O)NC(=O)Oc1cccc2ccccc12 [Example 26, Iminodicarbonic acid, [2,6-bis(1-methylethyl)phenyl](1-naphthalenyl) ester] | -11 | – | 1200
22 | CCCCCCCCCCCCC(C)OC(=O)NC(=O)Oc1ccc(F)cc1F (stereo not drawn) [Example 30, Iminodicarbonic acid, 2,4-difluorophenyl 1-methyltridecyl ester] | -15 | – | > 5000
23 | CCCCCCCCCCCCCCCCCCOC(=O)NC(=O)Oc1c(C(C)C)cccc1C(C)C [Example 12, Iminodicarbonic acid, 2,6-bis(1-methylethyl)phenyl octadecyl ester] | -34 | – | 1200
24 | CCCCCCCC(C)OC(=O)NC(=O)Oc1c(C(C)C)cccc1C(C)C (stereo not drawn) [Example 13] | -56 | – | –
25 | CCCCCCOC(=O)NC(=O)Oc1c(C(C)C)cccc1C(C)C [Example 6, Iminodicarbonic acid, 2,6-bis(1-methylethyl)phenyl hexyl ester] | -38 | – | 93
26 | CCCCCCCCCCSC(=O)NC(=O)Oc1c(C(C)C)cccc1C(C)C [Example 20, [(Decylthio)carbonyl]carbamic acid, 2,6-bis(1-methylethyl)phenyl ester] | -52 | – | –
27 | CCCCCCCCCCOC(=O)NC(=O)Oc1c(C(C)C)cccc1C(C)C [Example 17, Iminodicarbonic acid, 2,6-bis(1-methylethyl)phenyl decyl ester] | -43 | – | –
28 | CCCCC[C@@H](C)OC(=O)NC(=O)Oc1c(C(C)C)cccc1C(C)C [Example 8, Iminodicarbonic acid, 2,6-bis(1-methylethyl)phenyl 1-methylhexyl ester (R)] | -49 | – | –
29 | CC(C)c1cccc(C(C)C)c1OC(=O)NC(=O)Oc1ccccc1 [Example 27, Iminodicarbonic acid, 2,6-bis(1-methylethyl)phenyl phenyl ester] | – | – | 3700
30 | CC(C)(C)c1cccc(C(C)(C)C)c1OC(=O)NC(=O)Oc1c(C(C)(C)C)cccc1C(C)(C)C [Example 35, Iminodicarbonic acid bis[2,6-bis(1,1-dimethylethyl)phenyl]ester] | -4 | – | –
31 | CCCCCCCCCCCCOC(=O)NC(=O)Oc1c(OC)cc(OC)cc1OC [Example 29, Iminodicarbonic acid, dodecyl 2,4,6-trimethoxyphenyl ester] | – | – | > 5000
32 | CCCCCCCCOC(=O)NC(=O)Oc1c(C(C)C)cccc1C(C)C [Example 16, Iminodicarbonic acid, 2,6-bis(1-methylethyl)phenyl octyl ester] | -47 | – | –
33 | O=C(NC(=O)OC(c1ccccc1)c1ccccc1)OC(c1ccccc1)c1ccccc1 [Example 36, Iminodicarbonic acid, di(diphenylmethyl)ester] | – | – | > 5000
34 | CCCCCCCCCCCCOC(=O)NC(=O)Oc1c(C(C)C)cccc1C(C)C [Example 2, Iminodicarbonic acid, dodecyl 2,6-bis(1-methylethyl)phenyl ester] | -52 | – | –
